Test results published in PubChem BioAssay (NCI).
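Following 48 hours of exposure in 96-well plates, responses at five concentrations were used to interpolate endpoints linearly. Definition used: TGI = concentration required for complete inhibition of growth.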

Legend:
Experiment in all cases: DTP human tumour cell line panel, 48 h
XF 498 CNS = test system: XF 498 CNS
U251 CNS = test system: U251 CNS
NCI-H23 lung = test system: NCI-H23 lung
RPMI-8226 leukemia = test system: RPMI-8226 leukemia
RXF 393 renal = test system: RXF 393 renal
HOP-18 NSCLC = test system: HOP-18 NSCLC
KM12 colon = test system: KM12 colon
HCT-15 colon = test system: HCT-15 colon
OVCAR-8 ovarian = test system: OVCAR-8 ovarian
A549 NSCLC = test system: A549 NSCLC
HT29 colon = test system: HT29 colon
MOLT-4 leukemia = test system: MOLT-4 leukemia
SW-620 colon = test system: SW-620 colon
SNB-75 CNS = test system: SNB-75 CNS
CAKI-1 renal = test system: CAKI-1 renal
OVCAR-5 ovarian = test system: OVCAR-5 ovarian
UACC-62 melanoma = test system: UACC-62 melanoma
NCI-H226 lung = test system: NCI-H226 lung
TK-10 renal = test system: TK-10 renal
SN12C renal = test system: SN12C renal
KM20L2 colon = test system: KM20L2 colon
HL-60(TB) leukemia = test system: HL-60(TB) leukemia
EKVX NSCLC = test system: EKVX NSCLC
OVCAR-4 ovarian = test system: OVCAR-4 ovarian
UO-31 renal = test system: UO-31 renal
OVCAR-3 ovarian = test system: OVCAR-3 ovarian
SF-295 CNS = test system: SF-295 CNS
A498 renal = test system: A498 renal
DLD-1 colon = test system: DLD-1 colon
ACHN renal = test system: ACHN renal
HCC-2998 colon = test system: HCC-2998 colon
SNB-78 CNS = test system: SNB-78 CNS
COLO 205 colon = test system: COLO 205 colon
CCRF-CEM leukemia = test system: CCRF-CEM leukemia
RXF-631 renal = test system: RXF-631 renal
LXFL 529 NSCLC = test system: LXFL 529 NSCLC
HCT-116 colon = test system: HCT-116 colon
HOP-62 NSCLC = test system: HOP-62 NSCLC
LOX IMVI melanoma = test system: LOX IMVI melanoma
UACC-257 melanoma = test system: UACC-257 melanoma
K-562 leukemia = test system: K-562 leukemia
SF-539 CNS = test system: SF-539 CNS
SK-MEL-2 melanoma = test system: SK-MEL-2 melanoma
M19-MEL melanoma = test system: M19-MEL melanoma
SNB-19 CNS = test system: SNB-19 CNS
SK-MEL-5 melanoma = test system: SK-MEL-5 melanoma
M14 melanoma = test system: M14 melanoma
786-0 renal = test system: 786-0 renal
SK-OV-3 ovarian = test system: SK-OV-3 ovarian
HOP-92 NSCLC = test system: HOP-92 NSCLC
MALME-3M melanoma = test system: MALME-3M melanoma
IGROV1 ovarian = test system: IGROV1 ovarian
NCI-H460 lung = test system: NCI-H460 lung
DMS 114 small cell lung = test system: DMS 114 small cell lung
SR leukemia = test system: SR leukemia
SK-MEL-28 melanoma = test system: SK-MEL-28 melanoma
SF-268 CNS = test system: SF-268 CNS
NCI-H522 lung = test system: NCI-H522 lung

Measured: TGI

CSc1nc(NC2OCC(OC(C)=O)C(OC(C)=O)C2OC(C)=O)c2c(OC(C)=O)c(C)c(=O)oc2n1 (centres undefined)
not listed: SR leukemia | SK-MEL-28 melanoma | SF-268 CNS | NCI-H522 lung
> 100 µM: all other assays above

CCOC(=O)/C(C1=N[C@H](C(=O)OCC)CS1)=C(\O)c1ccccc1
not listed: TK-10 renal | A498 renal | SF-539 CNS | M19-MEL melanoma | 786-0 renal | SK-OV-3 ovarian | HOP-92 NSCLC | DMS 114 small cell lung
> 100 µM: all other assays above
